Earlier results on 1 compound are cited in patent US20220387384A1, “METHODS OF TREATING LSD1-RELATED DISEASES AND DISORDERS WITH LSD1 INHIBITORS” (Taiho Pharmaceutical Co., Ltd., priority 2019, published 2022).

For the data set the following is noted: i.e. about 3 days; NPL 11.

SMILES strings stand for the structures.

`COc1ccc(-c2c(-c3ccc(C#N)c(F)c3)nc(N3CCC(N)CC3)n(C)c2=O)cc1F` [CC-90011]: the half-life in pharmacokinetics is around 71 h.
